Experimental data: patent publication US20210220408A1, “ARYL HYDROCARBON RECEPTOR ANTAGONISTS AND METHODS OF USE” (Magenta Therapeutics Inc., priority 2018, published 2021)

Experiments:
[1] = target: T1, aryl hydrocarbon receptor (AHR) (Homo sapiens, UniProt P35869); assay: DRE-Luciferase reporter high-throughput screen (AHR antagonist, VAF347-activated)
T1 sequence (P35869 11-848): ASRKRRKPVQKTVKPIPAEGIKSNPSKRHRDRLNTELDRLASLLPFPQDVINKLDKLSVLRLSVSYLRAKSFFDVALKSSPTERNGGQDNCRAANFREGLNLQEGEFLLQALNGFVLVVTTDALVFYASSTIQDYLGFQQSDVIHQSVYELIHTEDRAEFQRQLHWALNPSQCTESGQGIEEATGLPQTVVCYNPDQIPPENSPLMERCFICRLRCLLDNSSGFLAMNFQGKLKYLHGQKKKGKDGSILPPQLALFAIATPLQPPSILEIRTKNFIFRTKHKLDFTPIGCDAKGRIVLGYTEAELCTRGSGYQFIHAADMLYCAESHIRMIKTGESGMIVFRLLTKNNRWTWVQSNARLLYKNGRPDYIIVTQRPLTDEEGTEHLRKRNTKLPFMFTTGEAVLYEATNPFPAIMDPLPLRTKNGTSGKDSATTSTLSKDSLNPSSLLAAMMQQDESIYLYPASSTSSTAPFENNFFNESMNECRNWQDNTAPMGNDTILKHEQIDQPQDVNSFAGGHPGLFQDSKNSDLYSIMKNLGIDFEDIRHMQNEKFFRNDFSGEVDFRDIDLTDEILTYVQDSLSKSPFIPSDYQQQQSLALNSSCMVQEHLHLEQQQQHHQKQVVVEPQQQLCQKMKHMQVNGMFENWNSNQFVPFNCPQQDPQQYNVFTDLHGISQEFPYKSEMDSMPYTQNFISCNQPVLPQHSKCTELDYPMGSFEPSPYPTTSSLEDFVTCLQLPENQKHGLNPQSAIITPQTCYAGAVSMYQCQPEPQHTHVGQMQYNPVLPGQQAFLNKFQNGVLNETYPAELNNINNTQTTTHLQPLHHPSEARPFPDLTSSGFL
From the text: HepG2 hepatocellular carcinoma cells were transfected with a dioxin-response element (DRE) Firefly luciferase reporter construct. Luciferase transcription was activated with the aryl hydrocarbon receptor (AHR) agonist, VAF347. Addition of an AHR antagonist results in inhibition of the luciferase transcription and a loss of signal in the assay.
HepG2, a hepatocellular carcinoma cell line, was transfected with the dioxin-response element Firefly luciferase reporter construct using the TransIT-transfection system. Prior to transfection, HepG2 cells (Sigma) were cultured at 90% confluency in Eagle's Modified Essential Medium (Sigma)+2 mM Glutamine (Sigma), +1^% Non Essential Amino Acids (Sigma)+10% Fetal Bovine Serum (Hyclone) and harvested and counted (Biorad TC20 cell counter). OptilMEM serum-free media and TransIT (Mirus) were mixed for transfection in 150 mm dishes by adding 240 μL Transit to 3.0 mL OptiMEM, vortexing briefly to mix, and incubating at room temperature for 20 minutes. The DNA mixture was prepared by adding 80 μg plasmid (pGudLuc6.1 plasmid, Garrison et al., (1996) Fundam. Appl. Toxicol., 30, 194-203), inverting to mix, and incubating at room temperature for 30 minutes. 30×10^6 HepG2 cells were seeded in 30 mL media and 3.3 mL of the DNA, OptiMEM, and TransIT mixture was added dropwise to the plate. The plate was mixed by rocking and incubated at 37° C./5% CO2 overnight. The next day, cells were harvested by aspirating media, washing once with sterile phosphate buffered saline (PBS, Gibco), trypsinzing with 0.05% Trypsin (Corning) and harvesting cells with culture medium, and freezing with Cell Freezing Media (Gibco) at 5 50×10^6 cells/vial in 1 mL/vial.
Transiently-transfected frozen HepG2 cells with DRE-Luciferase, were thawed in a 37° C. water bath and resuspended in complete media. 4 μL cells at 15,000 cells per well was transferred into the wells of a 1536-well Alphaplate assay plate (PerkinElmer) using TEMPEST liquid dispenser. The plate was centrifuged at 1000 rpm for 1 minute. 30 nL of the controls (1 μM (S)-2-(6-((2-(1H-indol-3-yl)ethyl)amino)-2-(5-fluoropyridin-3-yl)-9H-purin-9-yl)propan-1-ol or 100% DMSO) were transferred to the assay plate using the Pin Tool on BRAVO. 1 μL of VAF347 (15 nM final concentration) in complete media was added to the wells using TEMPEST. The plate was centrifuged at 1000 rpm for 1 minute and incubated at 37° C./5% CO2 overnight. After incubation, the plate was removed from the incubator and brought to room temperature. 2 μL of room temperature Steady-Glo luciferase detection reagent (Promega) was added to the wells with TEMPEST. The plate was centrifuged at 2000 rpm for 1 minute, sealed with clear plastic seal and kept at room temperature for 15 minutes prior to measuring luminescence on ENVISION.
Approximately 166,000 compounds were screened in 132 1536-well plates in the luciferase reporter gene assay at a final concentration of 12 μM. […] Each compound was tested at 0.1 μM, 1.0 μM, and 10 μM in the DRE luciferase assay and Cell Titer Glo cytotoxicity assay (Promega). […] 512 compounds were selected for 10-point dose-response in the AHR luciferase reporter assay and the Cell Titer Glo cytotoxicity assay.

[2] = tested on: mobilized peripheral blood CD34+ cells; assay: CD34+ expansion assay; format: cell-based; settings: Homo sapiens; read-out: CD34 Frequency EC50
Experimental: Approximately 3,000 mobilized peripheral blood CD34+ cells were plated per well in 384-well plate at a final volume of 45 μL in HSC growth media (SFEM supplemented with Pen/Strep, 50 ng/mL FLT3L, TPO, SCF and IL-6). Serial dilutions were made in HSC growth media with a top final concentration of 10 μM. 5 μL 10× stock was added to each well. The plate was gently tapped on all sides and incubated for 7 days at 37° C./5% CO2. On day 7, the media was aspirated on a Biotek plate washer and 30 μL staining solution was added to the cells with antibodies against CD34-PE, CD90-APC, CD45RA-PE-CF594 in PBS. Cells were washed once in PBS and resuspended in 80 μL for final volume. 40 μL was acquired by flow cytometry (BD Celesta).

IC50 [1] [nM] | EC50 [2] [nM] | Compound
500 to 1000 | 1000 to 5000 | Cn1c(SCc2ccc(-c3ccccc3)cc2)nnc1C(F)(F)F [compound 95]
500 to 1000 | 1000 to 5000 | Cc1ccc(N/N=C/c2ccc(-n3ccnc3)cc2)cc1Cl [compound 98]
500 to 1000 | 1000 to 5000 | Clc1ccc(COc2ccc(-c3ccnc4ccnn34)cc2)cc1 [compound 104]
200 to 500 | 1000 to 5000 | Cc1ccc(-c2ccc3c(C)nn(-c4ccccn4)c3n2)cc1 [compound 105]
500 to 1000 | 500 to 1000 | Cc1nn2c(C)c(C(=O)OC(C)C)nnc2c1-c1ccccc1 [compound 106]
500 to 1000 | 1000 to 5000 | Cc1ccc(Nc2cc(-c3ccccc3)nc3ncnn23)cc1 [compound 107]
500 to 1000 | < 500 | C/C(=N\Nc1ncc(Br)cn1)c1cccc([N+](=O)[O-])c1 [compound 112]
< 200 | < 500 | Cc1ccc2nc(-c3ccc(Cl)cc3)cc(C(N)=O)c2c1 [compound 116]
< 200 | < 500 | COc1ccc(-c2n[nH]c3c2C(=O)CC(c2ccccc2)C3)cc1 (stereo not shown) [compound 117]
200 to 500 | < 500 | CCCc1cc(C(N)=O)c(NC(=O)COc2ccccc2C)s1 [compound 119]
500 to 1000 | 1000 to 5000 | COc1cc([N+](=O)[O-])ccc1NC(=O)Nc1nc2c(s1)CCCC2 [compound 121]
500 to 1000 | 1000 to 5000 | COc1ccc(-c2nnc(Nc3ccccc3O)c3ccccc23)cc1 [compound 130]
500 to 1000 | 1000 to 5000 | Cc1ccccc1CS(=O)(=O)N1CCc2ccccc2C1 [compound 131]
500 to 1000 | ≥ 5000 | Cc1ccc2nc(-c3ccc(NC(=O)COC(=O)c4ccc(O)cc4O)cc3)sc2c1 [compound 138]

More lines, now with the values behind:

Compound | IC50 [1] [nM] | EC50 [2] [nM]
Cc1ccc(-n2nnc(-c3nc4ccccc4s3)c2N)cc1 [compound 94] | 500 to 1000 | < 500
COc1ccccc1-c1nnc(SCc2cccc3ccccc23)n1C [compound 96] | 500 to 1000 | 1000 to 5000
O=C(N/N=C\c1ccccc1C(F)(F)F)c1n[nH]c2c1CCc1ccccc1-2 [compound 99] | 500 to 1000 | 1000 to 5000
CCc1cccc2c(-c3cn4cc(S(N)(=O)=O)ccc4n3)c[nH]c12 [compound 100] | < 200 | < 500
Cc1ccc2nc(-c3ccc(-c4ccccn4)s3)cn2c1 [compound 101] | 500 to 1000 | 500 to 1000
OCCCc1nc2n(n1)C(c1cccc(Br)c1)C=C(c1ccc(Cl)cc1)N2 (stereo not shown) [compound 109] | 200 to 500 | 500 to 1000
O=[N+]([O-])c1ccc(/C=N/Nc2nccc(-c3cccnc3)n2)cc1 [compound 113] | 200 to 500 | 1000 to 5000
FC(F)(F)c1ccnc(N/N=C/c2ccc(Cl)cc2Cl)n1 [compound 114] | 500 to 1000 | 1000 to 5000
Cc1nc(-c2ccccc2)sc1C(=O)N/N=C/c1cc2ccccc2o1 [compound 115] | 200 to 500 | 1000 to 5000
Cc1noc(C)c1COc1cccc(C(=O)/N=c2/sccn2C)c1 [compound 118] | < 200 | < 500
CSc1ccc(N2C(=O)C3Cc4ccccc4CN3C2=O)cc1 (stereo not shown) [compound 120] | 200 to 500 | 500 to 1000
Cc1ccc(-c2nc(-c3cc(C)on3)no2)cc1 [compound 122] | 500 to 1000 | 1000 to 5000
FC(F)(F)Oc1ccc(-c2nnc(-c3cccnc3)o2)cc1 [compound 123] | 500 to 1000 | 1000 to 5000
Cc1ccc(Cc2c(C)nc(Nc3nc(C)c4ccc(C)cc4n3)[nH]c2=O)cc1 [compound 124] | 200 to 500 | 1000 to 5000
CC(=O)c1c(C)nc2nc(SCc3cccc(Cl)c3)nn2c1C [compound 125] | 500 to 1000 | 1000 to 5000
Cc1cccc(-c2nc(-c3c[nH]c(C(=O)N4CCCC4)c3)cs2)c1 [compound 126] | 500 to 1000 | 1000 to 5000
COc1ccc(NC(=O)CNc2ccc(C(F)(F)F)cc2)cc1Cl [compound 127] | 500 to 1000 | 1000 to 5000
CC(C)OCCCn1c(=O)c(-c2cccs2)nc2cc(S(=O)(=O)N3CCOCC3)ccc21 [compound 128] | 500 to 1000 | 1000 to 5000
O=c1[nH]c(NC2CCCC2)nc2nccc(-c3cccs3)c12 [compound 129] | 200 to 500 | 1000 to 5000
O=C1CN(C(=O)c2sc3ccccc3c2Cl)c2ccccc2N1 [compound 132] | 500 to 1000 | 1000 to 5000
CCN(CC)C(=O)c1nc2c(s1)CCN(c1ncccn1)CC2 [compound 133] | 500 to 1000 | 1000 to 5000
Cc1ccc(Cl)cc1-n1ccc2nc(N3CCCCC3)ncc2c1=O [compound 134] | 500 to 1000 | 1000 to 5000
CCC(=O)Nc1ccc(N2Cc3ccccc3C2=O)cc1 [compound 135] | 500 to 1000 | 1000 to 5000
COc1ccc(-c2ccc3c(N)c(C(=O)NC4CC4)sc3n2)cc1 [compound 136] | 500 to 1000 | ≥ 5000
Cc1c(Cl)c(=O)oc2cc(OCc3ccc(Cl)cc3)ccc12 [compound 137] | 500 to 1000 | ≥ 5000
Cc1cc(C(=O)NNC(=O)c2cnn(-c3ccccc3C)c2C(F)(F)F)c(C)o1 [compound 139] | 500 to 1000 | ≥ 5000
Clc1ccc(-c2nc(-c3cnccn3)no2)cc1 [compound 140] | 500 to 1000 | ≥ 5000
